{"source": "patent EP0565377B1", "about": "“Therapeutic agents for use in the treatment of Parkinson's Disease” (Kyowa Hakko Kogyo Co., Ltd., priority 1992, dated 1993)", "key": {"[1]": {"test_system": "Parkinson's Disease Model in Mouse", "test": "Effect on locomotor activity of Parkinson's disease model in mouse (MPTP-treated mice, Automex-II horizontal activity)", "format": "in vivo, male C57BL/6 mice", "method": "1-Methyl-4-phenyl-1,2,3,6-tetrahydropyridine (MPTP) causes symptoms of Parkinson's disease in humans [Science, 219, 979 (1983)]. It is reported that an experimental Parkinson's disease model was obtained by administering MPTP to mice [Science, 224, 1451 (1984)]. If a compound is effective on the experimental Parkinson's disease model in mouse, the compound can be expected to have a therapeutic effect on Parkinson's disease.\nThe experiment was performed by using several groups of 7-weeks-old male C57BL/6 mice (weighing 20 to 21 g, Japan SLC), each group consisting of 8 mice. MPTP (Aldrich Chemical Co., Inc.) dissolved in a physiological saline solution (Otsuka Pharmaceutical Co., Ltd.) was intraperitoneally administered to each mouse once a day for five consecutive days at a dose of 30 mg/kg. A test compound was suspended in injectable distilled water (Otsuka Phamaceutical Co., Ltd.) containing Tween 80 [polyoxyethylene (20) sorbitan monooleate]. L-DOPA (Kyowa Hakko Kogyo Co., Ltd.) was suspended in 0.3% CMC (sodium carboxylmethylcellulose). Thirty minutes after the final MPTP administration, the test compound suspensions and the control suspension [injectable distilled water (Otsuka Pharmaceutical Co., Ltd.) containing Tween 80] containing no test compound were orally administered to separate groups of the mice (0.1 ml per 10 g of body weight). The amount of active movements (horizontal activity) of each mouse was measured by using Automex-II (Columbus Instruments International Corp.) for the period of 30 minutes starting 30 minutes after the administration of the test compound. The effect of the compounds was evaluated by comparing the average counts of the active movements of the test compound-administered groups with those of the control groups. A significant difference test was performed by using Student's t-test."}, "dd-strain male mice": {"test_system": "dd-strain male mice", "test": "Acute toxicity test (minimum lethal dose, oral)", "format": "in vivo", "conditions": "oral administration, mortality seven days after administration, three mice per group", "method": "Test compounds were orally administered to groups of dd-strain male mice weighing 20±1 g, each group consisting of three mice. Seven days after the administration, minimum lethal dose (MLD) of each compound was determined by observing the mortality."}, "[2]": {"test_system": "Haloperidol-Induced Catalepsy", "test": "Effect on haloperidol-induced catalepsy", "format": "in vivo, male ddY mice", "conditions": "test compound 10 mg/kg orally; for inhibition in vivo at 10 mg/kg: Mus musculus, po, 1 h, rate of decrease in total score based on control group, read-out: Remission Rate (%); for Number of the Animals Showing Remission: of 5 mice, catalepsy score not more than 4 points; for Total Score: total catalepsy score of 5 mice (25 points at the full)", "method": "The experiment was performed by using several groups of 5-weeks-old male ddY mice (weighing 22 to 24 g, Japan SLC), each group consisting of 5 mice. Haloperidol (Janssen Pharmaceutica) suspended in 0.3% CMC was intraperitoneally administered to each mouse at a dose of 1.0 mg/kg. Test compounds were suspended in 0.3% CMC or in injectable distilled water (Otsuka Pharmaceutical Co., Ltd.) containing Tween 80. L-DOPA (Kyowa Hakko Kogyo Co., Ltd.) and benserazide hydrochloride (Kyowa Hakko Kogyo Co., Ltd.) were suspended in 0.3% CMC. One hour after the haloperidol administration, the test compound suspensions and the control suspension [0.3% CMC or injectable distilled water (Otsuka Pharmaceutical Co., Ltd.) containing Tween 80] containing no test compound were orally administered to separate groups of the mice (0.1 ml per 10 g of body weight). One hour after the administration of the test compound, the forelimbs of each mouse and subsequently the hindlimbs of the same mouse were placed on a 4.5 cm-high, 1.0 cm-wide bar and catalepsy was estimated. All of the test compounds were orally administered at a dose of 10 mg/kg, and L-DOPA (100 mg/kg) and benserazide (25 mg/kg) were intraperitoneally administered together as a control experiment. The catalepsy score and the standard of judgment are shown below.\nThe effect of the compounds was evaluated by the total of the catalepsy scores of five mice in each group (25 points at the full). The groups wherein the total score was not more than 20 points were estimated to be effective. The number of the animals showing remission against catalepsy is the number of the mice for which the catalepsy score was not more than 4 points."}, "[3]": {"conditions": "Table 3-5, test compound 40 mg/kg orally, normal control 2252 ±210.1, MPTP control 18 ± 8.4"}, "[4]": {"conditions": "Table 3-1, test compound 10 mg/kg orally, 30 min count starting 30 min after dosing, normal control 1875 ± 77.7, MPTP control 207 ± 85.5"}}, "note": "Read-outs that look alike come from different tables or passages of the source.", "data": [{"smiles": "COc1cc(/C=C/c2nc3c([nH]2)c(=O)n(C)c(=O)n3C)cc(OC)c1OC", "note": "[Compound 10, (E)-8-(3,4,5-trimethoxystyryl)theophylline]", "values": [{"measurement": "Amount of Active Movements (average count ± S.E.M)", "setting": "[1]; [3]", "result": "32 ± 21.2", "unit": "count"}, {"measurement": "MLD", "setting": "dd-strain male mice", "result": "> 300", "unit": "mg/kg"}]}, {"smiles": "COc1cc(/C=C/c2nc3c(c(=O)n(C)c(=O)n3C)n2C)cc(OC)c1OC", "note": "[Compound 2, (E)-8-(3,4,5-trimethoxystyryl)caffeine]", "values": [{"measurement": "Amount of Active Movements (average count ± S.E.M)", "setting": "[1]; [4]", "result": "1134 ±267.0", "unit": "count"}, {"measurement": "inhibition in vivo at 10 mg/kg", "setting": "[2]; Table 4-1", "result": 56, "unit": "%"}, {"measurement": "Number of the Animals Showing Remission", "setting": "[2]; Table 4-1", "result": 5}, {"measurement": "Total Score", "setting": "[2]; Table 4-1, 0.3% CMC control 25", "result": 11, "unit": "points"}, {"measurement": "MLD", "setting": "dd-strain male mice", "result": "> 300", "unit": "mg/kg"}]}, {"smiles": "CCCCn1c(=O)c2c(nc(/C=C/c3cc(OC)c(OC)c(OC)c3)n2C)n(CCCC)c1=O", "note": "[Compound 8, (E)-1,3-dibutyl-7-methyl-8-(3,4,5-trimethoxystyryl)xanthine]", "values": [{"measurement": "Amount of Active Movements (average count ± S.E.M)", "setting": "[1]; [3]", "result": "43 ± 28.3", "unit": "count"}, {"measurement": "MLD", "setting": "dd-strain male mice", "result": "> 300", "unit": "mg/kg"}]}, {"smiles": "CCCn1c(=O)c2nc(/C=C/c3cc(OC)c(OC)c(OC)c3)[nH]c2n(CCC)c1=O", "note": "[Compound 9, (E)-1,3-dipropyl-8-(3,4,5-trimethoxystyryl) xanthine]", "values": [{"measurement": "Amount of Active Movements (average count ± S.E.M)", "setting": "[1]; [3]", "result": "41 ± 18.0", "unit": "count"}, {"measurement": "MLD", "setting": "dd-strain male mice", "result": "> 300", "unit": "mg/kg"}]}, {"smiles": "CCCn1c(=O)c2c(nc(/C=C/c3ccccc3)n2C)n(CCC)c1=O", "note": "[Compound 3, (E) -7-methyl-1,3-dipropyl-8-styrylxanthine]", "values": [{"measurement": "Amount of Active Movements (average count ± S.E.M)", "setting": "[1]; Table 3-2, test compound 40 mg/kg orally, normal control 2185 ±156.2, MPTP control 38 ± 24.2", "result": "228 ± 82.6", "unit": "count"}, {"measurement": "inhibition in vivo at 10 mg/kg", "setting": "[2]; Table 4-1", "result": 20, "unit": "%"}, {"measurement": "Number of the Animals Showing Remission", "setting": "[2]; Table 4-1", "result": 4}, {"measurement": "Total Score", "setting": "[2]; Table 4-1, 0.3% CMC control 25", "result": 20, "unit": "points"}, {"measurement": "MLD", "setting": "dd-strain male mice", "result": "> 300", "unit": "mg/kg"}]}, {"smiles": "CCn1c(=O)c2c(nc(/C=C/c3cc(OC)c(OC)c(OC)c3)n2C)n(CC)c1=O", "note": "[Compound 4, (E)-1,3-diethyl-7-methyl-8-(3,4,5-trimethoxystyryl)xanthine]", "values": [{"measurement": "Amount of Active Movements (average count ± S.E.M)", "setting": "[1]; Table 3-2, test compound 10 mg/kg orally, normal control 2185 ±156.2, MPTP control 38 ± 24.2", "result": "961 ±164.7", "unit": "count"}, {"measurement": "inhibition in vivo at 10 mg/kg", "setting": "[2]; Table 4-1", "result": 20, "unit": "%"}, {"measurement": "Number of the Animals Showing Remission", "setting": "[2]; Table 4-1", "result": 4}, {"measurement": "Total Score", "setting": "[2]; Table 4-1, 0.3% CMC control 25", "result": 20, "unit": "points"}, {"measurement": "MLD", "setting": "dd-strain male mice", "result": "> 300", "unit": "mg/kg"}]}, {"smiles": "CCCn1c(=O)c2c(nc(/C=C/c3ccc(OC)c(OC)c3)n2C)n(CCC)c1=O", "note": "[Compound 1, (E)-8-(3,4-dimethoxystyryl)-7-methyl-1,3-dipropylxanthine]", "values": [{"measurement": "Amount of Active Movements (average count ± S.E.M)", "setting": "[1]; [4]", "result": "628 ±174.5", "unit": "count"}, {"measurement": "inhibition in vivo at 10 mg/kg", "setting": "[2]; Table 4-1", "result": 48, "unit": "%"}, {"measurement": "Number of the Animals Showing Remission", "setting": "[2]; Table 4-1", "result": 5}, {"measurement": "Total Score", "setting": "[2]; Table 4-1, 0.3% CMC control 25", "result": 13, "unit": "points"}, {"measurement": "MLD", "setting": "dd-strain male mice", "result": "> 300", "unit": "mg/kg"}]}, {"smiles": "CCCn1c(=O)c2c(nc(/C=C/c3cc(OC)c(OC)cc3OC)n2C)n(CCC)c1=O", "note": "[Compound 23, (E)-7-methyl-1,3-dipropyl-8-(2,4,5-trimethoxystyryl)xanthine]", "values": [{"measurement": "inhibition in vivo at 10 mg/kg", "setting": "[2]; Table 4-1", "result": 28, "unit": "%"}, {"measurement": "Number of the Animals Showing Remission", "setting": "[2]; Table 4-1", "result": 4}, {"measurement": "Total Score", "setting": "[2]; Table 4-1, 0.3% CMC control 25", "result": 18, "unit": "points"}, {"measurement": "MLD", "setting": "dd-strain male mice", "result": "> 300", "unit": "mg/kg"}]}, {"smiles": "CCCn1c(=O)c2nc(/C=C/c3ccc(OC)c(OC)c3OC)[nH]c2n(CCC)c1=O", "note": "[Compound 20, (E)-1,3-dipropyl-8-(2,3,4-trimethoxystyryl)xanthine]", "values": [{"measurement": "inhibition in vivo at 10 mg/kg", "setting": "[2]; Table 4-1", "result": 24, "unit": "%"}, {"measurement": "Number of the Animals Showing Remission", "setting": "[2]; Table 4-1", "result": 3}, {"measurement": "Total Score", "setting": "[2]; Table 4-1, 0.3% CMC control 25", "result": 19, "unit": "points"}, {"measurement": "MLD", "setting": "dd-strain male mice", "result": "> 300", "unit": "mg/kg"}]}, {"smiles": "CCCn1c(=O)c2c(nc(/C=C/c3ccc(OCC)cc3)n2C)n(CCC)c1=O", "note": "[Compound 48, (E)-8-(4-ethoxystyryl)-7-methyl-1,3-dipropylxanthine]", "values": [{"measurement": "inhibition in vivo at 10 mg/kg", "setting": "[2]; Table 4-2", "result": 76, "unit": "%"}, {"measurement": "Number of the Animals Showing Remission", "setting": "[2]; Table 4-2", "result": 5}, {"measurement": "Total Score", "setting": "[2]; Table 4-2, 0.3% Tween 80 control 25", "result": 6, "unit": "points"}, {"measurement": "MLD", "setting": "dd-strain male mice", "result": "> 100", "unit": "mg/kg"}]}, {"smiles": "C=CCn1c(=O)c2nc(/C=C/c3cc(OC)c(OC)c(OC)c3)[nH]c2n(CC=C)c1=O", "note": "[Compound 11, (E)-1,3-diallyl-8-(3,4,5-trimethoxystyryl) xanthine]", "values": [{"measurement": "Amount of Active Movements (average count ± S.E.M)", "setting": "[1]; [3]", "result": "20 ± 7.1", "unit": "count"}, {"measurement": "inhibition in vivo at 10 mg/kg", "setting": "[2]; Table 4-1", "result": 20, "unit": "%"}, {"measurement": "Number of the Animals Showing Remission", "setting": "[2]; Table 4-1", "result": 3}, {"measurement": "Total Score", "setting": "[2]; Table 4-1, 0.3% CMC control 25", "result": 20, "unit": "points"}, {"measurement": "MLD", "setting": "dd-strain male mice", "result": "> 300", "unit": "mg/kg"}]}, {"smiles": "CCCn1c(=O)c2c(nc(/C=C/c3ccc(OC)cc3)n2C)n(CCC)c1=O", "note": "[Compound 6, (E)-8-(4-methoxystyryl)-7-methyl-1,3-dipropylxanthine]", "values": [{"measurement": "inhibition in vivo at 10 mg/kg", "setting": "[2]; Table 4-1", "result": 24, "unit": "%"}, {"measurement": "Number of the Animals Showing Remission", "setting": "[2]; Table 4-1", "result": 3}, {"measurement": "Total Score", "setting": "[2]; Table 4-1, 0.3% CMC control 25", "result": 19, "unit": "points"}, {"measurement": "MLD", "setting": "dd-strain male mice", "result": "> 300", "unit": "mg/kg"}]}]}
